Patent US20220241314A1, “COMPOSITIONS AND METHODS FOR TREATMENT OF HEPATITIS B VIRUS INFECTION” (priority 2019, published 2022)
{ppp} = triphosphate

B1: poly-U/UC PAMP: ~100 nt PAMP motif from the HCV genome comprising 5′ppp and the poly U/UC region, recognized by RIG-I; formulated in liposome (nucleic acid)
chain: GGCCAUCCUGUUUUUUUCCCUUUUUUUUUUUCUUUUUUUUUUUUUUUUUUUUUUUUUUUUUUUUUUCUCCUUUUUUUUUCCUCUUUUUUUCCUUUUCUUUCCUUU
modifications: RNA, 5' {ppp}, backbone and methylation of C not given here; formulated in liposome
notes: ~100 nt PAMP motif from the HCV genome comprising 5′ppp and the poly U/UC region, recognized by RIG-I; formulated in liposome

Assays:
[1] = system: IRF3; experiment: Immunoblot of IRF3 phosphorylation and IFIT1 expression; assay type: cell-based, human; details: HepG2-hNTCP and dHepaRG cells, 24 and 48 hours, dose-dependent
[2] = system: HBV; experiment: HBV replication infection/treatment time course over 20 dpi; assay type: cell-based, HBV (Genotype D); details: HepG2-hNTCP; for production of pgRNA (RT-qPCR): 6 dpi to 20 dpi; for capsid-associated intracellular HBV DNA (RC, DL, SS DNA), Southern blot: 6 to 20 dpi; for production of cccDNA over time course: F7 10 μM or poly-U/UC PAMP 100 ng/ml from 24 hours after infection, within 2 dpi; for extracellular HBV DNA (qPCR) / secreted HBsAg in culture supernatant (ELISA): infection/treatment time course
Protocol: FIGS. 9A-9E illustrate kinetics of HBV replication in parallel cultures of cells during treatment with F7 or poly-U/UC PAMP. (9A) HepG2-hNTCP cells were infected with HBV at a moi of 1000 Geq/cell. After 24 hours the cells were treated with F7 (10 μM) (upper), or 100 ng/ml X RNA or 100 ng/ml poly-U/UC PAMP (lower). Cells were harvested at each time point, Hirt supernatants prepared and subjected to Southern blot analysis. (B) HBV pgRNA was analyzed by RT-qPCR. Values from 20 Dpi of ‘HBV only’ was set to 100% for RT-PCR analysis. Data was presented as mean±standard deviations (SD), ***P<0.001, ****P 21 0.0001; and ns=non-significant (9C) HBV intracellular capsid-associated DNA from cells treated with 10 uM F7 (upper) or 100 ng/ml XRNA or poly-U/UC PAMP (lower) was analyzed by Southern blot. (9D) Secreted HBsAg from HBV-infected cells treated with F7 (upper) or poly-U/UC (lower) was detected by ELISA. (9E) Extracellular HBV-DNA was measured by qPCR from cells treated with 10 uM (left) or 100 ng/ml XRNA or poly-U/UC PAMP (right). Data are presented as mean±standard deviation (SD) from three independent experiments. ***P 0.0002.
To further determine how the activation of IRF3 impacts the HBV replication cycle, the expression of viral DNA, viral RNA, extracellular HBV DNAs and secreted HBsAg were analyzed over an infection/treatment time course. […] The level of capsid-associated intracellular HBV DNA intermediates of reverse transcription produced over the HBV infection/treatment time course were also measured.
HBV infection HBV (Genotype D) was purified from the supernatant of HepAD38 cells by PEG concentration and subsequent sucrose gradient, as described previously (Ko, C., et al. (2014). DDX3 DEAD-Box RNA Helicase Is a Host Factor That Restricts Hepatitis B Virus Replication at the Transcriptional Level. Journal of Virology 88, 13689-13698; Watashi, K., et al. (2013), supra). For HBV infection cells were seeded into collagen-coated plates. One day later, the cells were infected with HBV in DMEM containing 4% polyethylene glycol 8000 (PEG-8000). The multiplicities of infection (expressed as virus genome equivalent/cell) are indicated in each Figure Legend. The inocula were removed 24 hours later, and the infected cultures were maintained in complete DMEM containing 2.5% DMSO until harvesting, as described previously (Ni, Y., et al. (2014). Hepatitis B and D viruses exploit sodium taurocholate co-transporting polypeptide for species-specific entry into hepatocytes. Gastroenterology 146, 1070-1083).
Reverse transcription quantitative real time qPCR (RT-qPCR) analysis: Total cellular RNAs were extracted from cells using TRIZOL reagent and the manufacturers protocol (Invitrogen). cDNA was synthesized from the purified RNA by both random and oligo (dT) priming using iScript select cDNA synthesis kit (Biorad, Inc.). For HBV cccDNA expression analysis, total DNA was extracted using the DNeasy kit (QIAGEN). For selective cccDNA PCR analysis, isolated DNAs were treated with 10 Units of T5 exonuclease (NEB) for 30 min in 10 μl of reaction volume in 37° C., followed by heat-inactivation at 95° C. for 5 min and 4-fold dilution with Nuclease-free water. For extra-cellular HBV DNA quantification, an external HBV plasmid standard was used to program the PCR (Ko, C., et al. (2018), supra). Relative mRNA levels of all target genes were quantified by RT-qPCR performed using the ΔΔCT method, and expression levels were normalized to house-keeping genes. Real-time PCR assays were carried out using the SYBR green method (Applied Biosystems) performed using an Applied Biosystems 7300 thermocycler. […]

Row | Molecule | IRF3 phosphorylation and IFIT1 expression [1] | production of pgRNA (RT-qPCR) [2] | capsid-associated intracellular HBV DNA (RC, DL, SS DNA), Southern blot [2] | production of cccDNA over time course [2] | extracellular HBV DNA (qPCR) [2] | secreted HBsAg in culture supernatant (ELISA) [2]
1 | O=C(Nc1ccc2nc(NC(=O)c3ccc4ccccc4c3)sc2c1)c1ccccc1 [F7, N-(6-benzamido-1,3-benzothiazol-2-yl)naphthalene-2-carboxamide] | specifically induced IRF3 phosphorylation and the expression of IFIT1 | significantly suppressed | markedly decreased the levels of these DNA species | markedly suppressed | reduction of extracellular HBV DNA | significant reduction in the level of secreted HBsAg
2 | B1 | specifically induced IRF3 phosphorylation and the expression of IFIT1 | significantly suppressed | markedly decreased the levels of these DNA species | markedly suppressed | reduction of extracellular HBV DNA | significant reduction in the level of secreted HBsAg
